Data: patent publication US20060069132A1, “Azolecarboxamide herbicides” (priority 2004, published 2006)

How the values were obtained:
[1] = tested on: johnsongrass; experiment: Test C pre-/postemergence herbicide test; type: in vivo, Sorghum halepense; conditions: for Plant response rating, Johnsongrass: preemergence; for Johnsongrass plant response rating: Preemergence, 500 g ai/ha, scale 0 to 100, 0 no effect, 100 complete control
Method in brief: (§1)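 Greenhouse-grown plants were evaluated visually 12 to 14 days after treatment, with 100 meaning complete control and 0 no effect. Application was preemergence, or postemergence at 2 to 18 cm.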

[2] = tested on: common ragweed; experiment: Test C pre-/postemergence herbicide test; type: in vivo, Ambrosia elatior; set-up: key to Plant response rating, Ragweed: 0 = no effect, 100 = complete control; conditions: for Plant response rating, Ragweed: preemergence; for Ragweed plant response rating: Preemergence, 500 g ai/ha, scale 0 to 100, 0 no effect, 100 complete control
Method in brief: as §1

[3] = tested on: barnyardgrass; experiment: Test A pre-/postemergence herbicide test; type: in vivo, Echinochloa crus-galli
Method in brief: (§2)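 Plants are held in greenhouse about ten days after treatment, then compared with untreated controls and scored 0 (no effect) to 100 (complete control). Preemergence dosing is a directed soil spray on sown sandy loam; postemergence dosing is spray to runoff at 2–10 cm height.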

[4] = tested on: giant foxtail; experiment: Test C pre-/postemergence herbicide test; type: in vivo, Setaria faberi; conditions: for Plant response rating, Foxtail, Giant: preemergence; for Foxtail, Giant plant response rating: Preemergence, 500 g ai/ha, scale 0 to 100, 0 no effect, 100 complete control
Method in brief: as §1

[5] = tested on: corn; experiment: Test C pre-/postemergence herbicide test; type: in vivo, Zea mays; conditions: for Plant response rating, Corn: preemergence; for Corn plant response rating: Preemergence, 500 g ai/ha, scale 0 to 100, 0 no effect, 100 complete control
Method in brief: as §1

[6] = tested on: large crabgrass; experiment: Test A pre-/postemergence herbicide test; type: in vivo, Digitaria sanguinalis
Method in brief: as §2

[7] = tested on: kochia; experiment: Test C pre-/postemergence herbicide test; type: in vivo, Kochia scoparia; conditions: for Plant response rating, Kochia: preemergence; for Kochia plant response rating: Preemergence, 500 g ai/ha, scale 0 to 100, 0 no effect, 100 complete control
Method in brief: as §1

[8] = tested on: giant foxtail; experiment: Test A pre-/postemergence herbicide test; type: in vivo, Setaria faberi
Method in brief: as §2

[9] = 125 g ai/ha, scale 0 (no effect) to 100 (complete control), visual, 12 to 14 days
[10] = Postemergence, 500 g ai/ha, 0 to 100 scale, 0 no effect, 100 complete control
[11] = Postemergence, 2000 g ai/ha, 0 to 100 scale, 0 no effect, 100 complete control
[12] = Preemergence, 500 g ai/ha, visual rating, 0 to 100 scale (0 no effect, 100 complete control)
[13] = Preemergence, 2000 g ai/ha, visual rating, 0 to 100 scale (0 no effect, 100 complete control)
[14] = 250 g ai/ha, scale 0 to 100 (0 no effect, 100 complete control), visual, 12 to 14 days
[15] = preemergence, 500 g ai/ha, visual injury, 0 to 100 scale (0 no effect, 100 complete control)

| SMILES | Plant response rating, Johnsongrass ([1]; 62 g ai/ha, scale 0 to 100) | Plant response rating, Johnsongrass [1, 9] | Johnsongrass plant response rating [1] | Plant response rating, Ragweed ([2]; 62 g ai/ha, scale 0 to 100) | Plant response rating, Ragweed [2, 9] | Ragweed plant response rating [2] | Barnyardgrass plant response rating [3, 10] | Plant response rating, Barnyardgrass [3, 11] | Barnyardgrass plant response rating [3, 13] | Plant response rating, Foxtail, Giant ([4]; 62 g ai/ha, scale 0 to 100) | Plant response rating, Foxtail, Giant [4, 9] | Foxtail, Giant plant response rating [4] | Plant response rating, Corn ([5]; 62 g ai/ha, scale 0 to 100) | Plant response rating, Corn [5, 9] | Corn plant response rating [5] | Crabgrass, Large plant response rating [6, 10] | Plant response rating, Crabgrass, Large [6, 11] | Crabgrass, Large plant response rating [6, 13] | Plant response rating, Kochia ([7]; 62 g ai/ha, scale 0 to 100) | Plant response rating, Kochia [7, 9] | also measured |
| --- | --- | --- | --- | --- | --- | --- | --- | --- | --- | --- | --- | --- | --- | --- | --- | --- | --- | --- | --- | --- | --- |
| CCN(CC)C(=O)c1ccnc(NC(=O)c2cc(C(C)(C)C)nn2CC)c1 [Compound 153] | 0 | 15 | 85 | 0 | 0 | 100 | 75 | 100 | 90 | 0 | 0 | 0 | 0 | 0 | 0 | 10 | 20 | 25 | 65 | 95 | Barnyardgrass plant response rating [3, 12]: 80; Plant response rating, Foxtail, Giant [4, 14]: 0; Plant response rating, Corn [5, 14]: 0; Crabgrass, Large plant response rating [6, 12]: 25; Kochia plant response rating [7]: 100; Foxtail, Giant plant response rating [8, 10]: 20; Plant response rating, Foxtail, Giant [8, 11]: 90; Foxtail, Giant plant response rating [8, 12]: 15; Foxtail, Giant plant response rating [8, 13]: 60 |
| CCN(CC)C(=O)c1cccc(NC(=O)c2sc(C(C)(C)C)nc2C)c1 [Compound 199] | 0 | 30 | 90 | 55 | 60 | 80 | 10 | 80 | 95 | 0 | 10 | 100 | 0 | 0 | 0 | 15 | 50 | 100 | 80 | 85 | Plant response rating, Johnsongrass ([1]; 250 g ai/ha, scale 0-100): 60; Plant response rating, Ragweed ([2]; 250 g ai/ha, scale 0-100): 80; Barnyardgrass plant response rating [3, 15]: 55; Plant response rating, Foxtail, Giant ([4]; 250 g ai/ha, scale 0-100): 80; Plant response rating, Corn ([5]; 250 g ai/ha, scale 0-100): 0; Crabgrass, Large plant response rating [6, 15]: 70; Plant response rating, Kochia ([7]; 250 g ai/ha, scale 0-100): 90; Kochia plant response rating [7]: 90; Foxtail, Giant plant response rating [8, 10]: 25; Plant response rating, Foxtail, Giant [8, 11]: 65; Foxtail, Giant plant response rating [8, 13]: 100; Foxtail, Giant plant response rating [8, 15]: 80 |
